For this test, the target named is T1, HA-S170A/D190A CaSR mutant (Rattus norvegicus, UniProt P48442, D190A/S170A).
T1 construct: mGluR5 signal peptide (N); expressed in transfected cells; host or cells: HEK293T
T1 sequence (P48442 20-1079 S170A/D190A): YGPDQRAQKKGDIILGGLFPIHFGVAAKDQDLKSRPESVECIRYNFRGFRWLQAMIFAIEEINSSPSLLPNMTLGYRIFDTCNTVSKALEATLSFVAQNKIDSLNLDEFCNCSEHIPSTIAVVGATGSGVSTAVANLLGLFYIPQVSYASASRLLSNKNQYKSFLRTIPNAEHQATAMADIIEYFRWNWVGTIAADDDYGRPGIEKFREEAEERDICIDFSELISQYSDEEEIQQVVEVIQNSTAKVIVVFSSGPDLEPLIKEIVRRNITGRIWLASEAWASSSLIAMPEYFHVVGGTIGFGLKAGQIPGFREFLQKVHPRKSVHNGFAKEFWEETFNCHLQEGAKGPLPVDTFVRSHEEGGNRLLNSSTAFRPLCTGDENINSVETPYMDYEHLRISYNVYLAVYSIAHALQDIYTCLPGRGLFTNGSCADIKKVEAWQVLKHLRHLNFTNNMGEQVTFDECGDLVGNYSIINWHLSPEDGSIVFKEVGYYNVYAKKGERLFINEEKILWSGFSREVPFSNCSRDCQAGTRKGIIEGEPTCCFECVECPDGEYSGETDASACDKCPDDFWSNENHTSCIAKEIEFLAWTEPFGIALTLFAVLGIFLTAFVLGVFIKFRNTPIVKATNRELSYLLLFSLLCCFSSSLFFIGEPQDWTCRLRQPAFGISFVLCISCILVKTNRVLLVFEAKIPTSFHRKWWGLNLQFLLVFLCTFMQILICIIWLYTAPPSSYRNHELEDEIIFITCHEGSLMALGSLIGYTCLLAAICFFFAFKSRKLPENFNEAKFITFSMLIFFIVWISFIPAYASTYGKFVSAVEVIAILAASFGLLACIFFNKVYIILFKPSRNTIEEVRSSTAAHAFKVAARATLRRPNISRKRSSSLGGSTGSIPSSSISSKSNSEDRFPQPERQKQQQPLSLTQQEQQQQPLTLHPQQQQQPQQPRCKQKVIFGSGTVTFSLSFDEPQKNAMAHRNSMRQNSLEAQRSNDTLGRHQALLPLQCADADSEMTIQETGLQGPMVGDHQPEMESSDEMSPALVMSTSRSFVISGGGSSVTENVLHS
Description: IP-One assay, HEK293T transiently transfected. The class given is cell-based.

Experimental findings from article PMC5394417, “Investigating the molecular mechanism of positive and negative allosteric modulators in the calcium-sensing receptor dimer” (Scientific Reports, 2017) are described below.

Molecules are shown by their SMILES.

`[Ca+2]` [Ca^2+]: under “Ca^2+ alone”, a half-maximal effect (EC50) was put at 31.8 mM, the “Hill coefficient ± S.E.M.” value is given as 4.05 ± 0.43 and the “pEC50 ± S.E.M.” value was found to be 1.50 ± 0.04. In addition, for the setting “normalized to maximum response of WT CaSR”, the “Max ± S.E.M.” value worked out at 49 ± 2.5%.
